Laboratory results published in US6423689B1, “Peptidyl calcium channel blockers” (Warner-Lambert Company, priority 1997, dated 2002).

Target: T1, N-type Ca2+ channels in IMR-32 cells (Homo sapiens, UniProt Q00975)
T1 construct: host or cells: IMR-32 cells, differentiated with dibutyryl cAMP and bromodeoxyuridine
Experiment: Inhibition of N-type calcium flux in IMR-32 cells (Indo-1 fluorescence, nitrendipine present)
Type: cell-based
Description: Measurement of N-type Ca^2+ Channel Blocking Potencies of Compounds in IMR-32 Cells Using the Fluorescent Ca^2+ Indicator Indo-1
IMR-32 cells are a human tumoral cell line of neural origin. […] Calcium flux into these cells may be induced by stimulation with elevated potassium concentrations. The L-channel component of calcium flux may be blocked by adding 5 μM nitrendipine. The remaining component of calcium entry into the IMR-32 cells is due to calcium flux through N-type calcium channels. Intracellular calcium concentrations are measured using the fluorescent calcium indicator Indo 1. The effect of drug concentration on calcium uptake is studied.
The IMR-32 cell line was obtained from the American Type Culture Collection (Rockville, Md.). Cells were grown in Eagle's Minimum Essential Medium with Eagle's salts supplemented with 10% fetal bovine serum, 2 mM L-Gln and antibiotic/antimycotic mixture (Gibco). […] After 7 to 13 days of differentiation, cells were detached using 0.5 mM EDTA and loaded with 5 μM Indo-1 acetoxymethyl ester (Molecular Probes, Eugene, OR) at […] for 45 minutes. Loaded cells were washed twice, resuspended (˜10^7 cells/mL) in assay buffer (10 mM HEPES/Tris pH 7.4 in Hank's Balanced Salt Solution without bicarbonate or phenol red containing 0.5% bovine serum albumin) and kept on ice until use. Fluorescence measurements were carried out in a Photon Technology International (PTI, South Brunswick, N.J.) Model RF-F3004 spectrofluorometer with dual emission monochromators using excitation at 350 nm and emission at 400 and 490 nm. The instrument was equipped with a thermostated cuvette holder with stirring capabilities as well as with a computer-controlled pump which allowed for reagent addition during measurement. Instrument control and data collection was done by PTI's OSCAR software running on an IBM compatible computer. […] Samples were incubated for 10 minutes at 30° C. and then aliquoted into three 10×10 mm disposable acrylic cuvettes. Emission signals at 400 and 490 nm were acquired from each cuvette at 30° C. for 50 seconds. At 20 seconds after the start of reading, cells were depolarized by the addition of 160 μL of stimulation solution (1M KCl, 68 mM CaCl2) to the cuvette via the computer-controlled pump. Ratio of dual emission signals (400 nm/490 nm), which is proportional to intracellular Ca^2+ concentration, was plotted against time, and the difference between maximal response after stimulation and basal value (before stimulation) was determined. Values obtained in this way were plotted as a function of drug concentration. IC50 values of test compounds were calculated by fitting a four-parameter logistic function to the data using the least squares method.

T1 sequence (Q00975 whole entry): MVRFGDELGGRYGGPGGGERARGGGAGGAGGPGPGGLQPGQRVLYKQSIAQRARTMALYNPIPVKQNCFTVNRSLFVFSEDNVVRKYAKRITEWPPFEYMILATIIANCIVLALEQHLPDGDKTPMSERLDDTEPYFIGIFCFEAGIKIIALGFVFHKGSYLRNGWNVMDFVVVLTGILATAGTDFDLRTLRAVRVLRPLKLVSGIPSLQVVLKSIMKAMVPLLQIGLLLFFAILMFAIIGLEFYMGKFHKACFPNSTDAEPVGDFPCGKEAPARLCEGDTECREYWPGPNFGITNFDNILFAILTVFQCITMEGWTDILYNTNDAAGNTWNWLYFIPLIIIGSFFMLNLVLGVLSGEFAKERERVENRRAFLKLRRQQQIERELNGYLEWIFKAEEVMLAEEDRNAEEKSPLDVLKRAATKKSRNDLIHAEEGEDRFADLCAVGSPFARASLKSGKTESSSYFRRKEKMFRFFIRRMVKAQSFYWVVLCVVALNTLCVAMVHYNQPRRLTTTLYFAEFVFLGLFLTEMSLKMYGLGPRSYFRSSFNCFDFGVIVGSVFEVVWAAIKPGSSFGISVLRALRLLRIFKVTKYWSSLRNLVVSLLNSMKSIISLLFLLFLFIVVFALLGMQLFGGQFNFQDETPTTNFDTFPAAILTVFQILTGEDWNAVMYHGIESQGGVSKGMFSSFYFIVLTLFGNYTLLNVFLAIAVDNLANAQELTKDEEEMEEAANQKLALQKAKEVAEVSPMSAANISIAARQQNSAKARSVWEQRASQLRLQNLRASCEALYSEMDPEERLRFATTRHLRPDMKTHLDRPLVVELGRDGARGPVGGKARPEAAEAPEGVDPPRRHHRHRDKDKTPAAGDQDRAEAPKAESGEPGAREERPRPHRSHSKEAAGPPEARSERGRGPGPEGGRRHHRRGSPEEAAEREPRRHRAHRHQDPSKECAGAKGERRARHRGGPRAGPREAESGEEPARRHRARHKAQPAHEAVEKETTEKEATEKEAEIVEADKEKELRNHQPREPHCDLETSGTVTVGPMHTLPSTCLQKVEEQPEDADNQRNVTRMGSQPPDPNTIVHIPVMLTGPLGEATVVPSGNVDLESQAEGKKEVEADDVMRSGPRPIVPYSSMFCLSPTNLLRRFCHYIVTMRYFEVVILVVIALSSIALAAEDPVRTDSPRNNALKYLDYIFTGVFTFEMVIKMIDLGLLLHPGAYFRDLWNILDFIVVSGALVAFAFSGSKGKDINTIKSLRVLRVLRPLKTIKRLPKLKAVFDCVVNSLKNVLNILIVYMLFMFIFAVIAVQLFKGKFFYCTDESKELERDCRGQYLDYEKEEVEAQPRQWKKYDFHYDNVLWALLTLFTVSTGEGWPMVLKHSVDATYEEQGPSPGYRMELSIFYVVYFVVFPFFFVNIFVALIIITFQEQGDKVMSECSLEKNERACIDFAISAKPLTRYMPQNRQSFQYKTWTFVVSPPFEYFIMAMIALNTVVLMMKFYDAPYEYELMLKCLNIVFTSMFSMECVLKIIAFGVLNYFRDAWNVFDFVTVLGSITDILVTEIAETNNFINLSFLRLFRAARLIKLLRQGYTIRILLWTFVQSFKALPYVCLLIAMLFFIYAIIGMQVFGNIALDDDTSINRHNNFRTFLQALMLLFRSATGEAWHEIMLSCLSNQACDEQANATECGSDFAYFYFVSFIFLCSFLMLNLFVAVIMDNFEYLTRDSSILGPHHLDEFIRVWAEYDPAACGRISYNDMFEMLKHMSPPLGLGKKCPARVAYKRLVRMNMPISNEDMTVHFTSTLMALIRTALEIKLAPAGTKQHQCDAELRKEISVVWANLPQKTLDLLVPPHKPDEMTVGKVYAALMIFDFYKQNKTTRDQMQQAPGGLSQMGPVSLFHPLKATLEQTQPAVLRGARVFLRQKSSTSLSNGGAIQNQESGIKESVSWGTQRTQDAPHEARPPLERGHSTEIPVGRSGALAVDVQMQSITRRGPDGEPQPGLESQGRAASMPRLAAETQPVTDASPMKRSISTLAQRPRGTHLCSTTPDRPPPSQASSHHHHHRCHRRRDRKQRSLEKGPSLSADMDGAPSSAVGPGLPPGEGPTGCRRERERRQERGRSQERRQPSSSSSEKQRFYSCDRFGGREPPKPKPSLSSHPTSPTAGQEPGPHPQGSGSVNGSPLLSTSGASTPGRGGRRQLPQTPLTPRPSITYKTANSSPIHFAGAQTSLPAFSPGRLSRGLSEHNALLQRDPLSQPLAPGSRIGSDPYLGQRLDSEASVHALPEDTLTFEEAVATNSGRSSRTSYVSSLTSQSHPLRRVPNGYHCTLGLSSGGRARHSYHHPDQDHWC
T1 sequence (P54289 25-956 partner limits assumed): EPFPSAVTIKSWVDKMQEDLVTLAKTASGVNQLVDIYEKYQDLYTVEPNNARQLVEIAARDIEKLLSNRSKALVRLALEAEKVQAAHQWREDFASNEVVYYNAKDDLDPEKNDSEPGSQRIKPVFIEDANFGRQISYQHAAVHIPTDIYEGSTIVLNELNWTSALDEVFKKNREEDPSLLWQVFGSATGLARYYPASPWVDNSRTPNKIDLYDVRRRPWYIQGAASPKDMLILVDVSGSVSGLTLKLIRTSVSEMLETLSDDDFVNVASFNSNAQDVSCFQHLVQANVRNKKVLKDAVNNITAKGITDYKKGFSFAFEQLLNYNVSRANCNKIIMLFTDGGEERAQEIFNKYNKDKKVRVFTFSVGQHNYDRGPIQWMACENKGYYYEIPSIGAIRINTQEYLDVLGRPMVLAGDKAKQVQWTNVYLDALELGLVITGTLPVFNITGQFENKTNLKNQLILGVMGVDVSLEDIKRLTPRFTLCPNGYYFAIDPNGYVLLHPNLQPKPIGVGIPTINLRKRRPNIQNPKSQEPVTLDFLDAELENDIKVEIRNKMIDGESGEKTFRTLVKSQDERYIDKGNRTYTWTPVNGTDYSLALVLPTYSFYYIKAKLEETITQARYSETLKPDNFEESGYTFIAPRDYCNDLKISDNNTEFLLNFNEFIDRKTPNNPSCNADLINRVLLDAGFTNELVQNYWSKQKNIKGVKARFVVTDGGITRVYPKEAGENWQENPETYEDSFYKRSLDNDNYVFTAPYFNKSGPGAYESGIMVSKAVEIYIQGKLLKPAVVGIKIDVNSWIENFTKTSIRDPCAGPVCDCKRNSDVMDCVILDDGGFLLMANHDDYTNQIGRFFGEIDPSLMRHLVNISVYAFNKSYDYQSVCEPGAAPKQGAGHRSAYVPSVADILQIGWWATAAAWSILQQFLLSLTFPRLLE
T1 sequence (P54289 957-1103 partner limits assumed): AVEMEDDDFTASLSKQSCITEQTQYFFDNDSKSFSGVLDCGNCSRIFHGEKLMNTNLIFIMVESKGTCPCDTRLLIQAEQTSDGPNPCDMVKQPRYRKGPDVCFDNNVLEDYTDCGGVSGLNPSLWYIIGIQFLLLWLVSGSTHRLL
T1 sequence (P54284 whole entry partner): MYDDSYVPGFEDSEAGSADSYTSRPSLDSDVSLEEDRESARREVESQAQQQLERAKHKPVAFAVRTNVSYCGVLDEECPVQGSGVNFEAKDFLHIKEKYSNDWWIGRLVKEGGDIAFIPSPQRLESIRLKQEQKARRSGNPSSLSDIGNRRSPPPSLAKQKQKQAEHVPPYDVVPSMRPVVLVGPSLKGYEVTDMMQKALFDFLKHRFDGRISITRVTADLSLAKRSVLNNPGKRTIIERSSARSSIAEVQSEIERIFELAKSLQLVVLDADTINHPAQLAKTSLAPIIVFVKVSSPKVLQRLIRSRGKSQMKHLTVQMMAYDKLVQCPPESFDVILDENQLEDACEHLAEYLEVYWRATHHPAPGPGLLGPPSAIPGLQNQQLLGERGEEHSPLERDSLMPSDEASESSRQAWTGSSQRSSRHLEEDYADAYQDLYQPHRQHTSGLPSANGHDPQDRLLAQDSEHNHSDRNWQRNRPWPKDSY

Row | SMILES | Inhibition of Calcium Flux in IMR-32 Cells % Inhibition at 1 μM [%] | Inhibition of Calcium Flux in IMR-32 Cells % Inhibition at 10 μM [%]
1 | CC(C)C[C@H](NC(=O)N1CCCCCC1)C(=O)N[C@@H](Cc1ccc(OCc2ccccc2)cc1)C(=O)OCc1ccccc1 (relative stereo) [Example 14, [S-(R*,R*)]-2-{2-[(Azepane-1-carbonyl)-amino]-4-methyl-pentanoylamino}-3-(4-benzyloxy-phenyl)-propionic acid benzyl ester] | 45 | 
2 | COC(=O)[C@H](Cc1ccc(OC(C)(C)C)cc1)NC(=O)[C@H](CC(C)C)NC(=O)N1CCCCCC1 (relative stereo) [Example 22, [S-(R*,R*)]-2-{2-[(Azepane-1-carbonyl)-amino]-4-methyl-pentanoylamino}-3-(4-tert-butoxy-phenyl)-propionic acid methyl ester] | 29 | 
3 | CC(C)C[C@H](NC(=O)N1CCCCCC1)C(=O)N[C@@H](Cc1ccc(OCc2cccc(N)c2)cc1)C(=O)OC(C)(C)C (relative stereo) [Example 29, [S-(R*,R*)]-3-[4-(3-Amino-benzyloxy)-phenyl]-2-{2-[(azepane-1-carbonyl)-amino]-4-methyl-pentanoylamino}-propionic acid tert-butyl ester] | 43 | 87
4 | CC(C)C[C@H](NC(=O)N1CCOCC1)C(=O)N[C@@H](Cc1ccc(OCc2ccccc2)cc1)C(=O)OC(C)(C)C (relative stereo) [Example 34, [S-(R*,R*)]-3-(4-Benzyloxy-phenyl)-2(S)-{4-methyl-2(S)-[(morpholine-4-carbonyl)-amino]-pentanoylamino}-propionic acid tert-butyl ester] | 29 | 78
5 | CC(C)C[C@H](NC(=S)Nc1ccc(C(C)C)cc1)C(=O)N[C@@H](Cc1ccc(OCc2ccccc2)cc1)C(=O)OC(C)(C)C (relative stereo) [Example 43, [S-(R*,R*)]-3-(4-Benzyloxy-phenyl)-2-{2-[3-(4-isopropyl-phenyl)-thioureido]-4-methyl-pentanoylamino}-propionic acid, tert-butyl ester] | 17 | 38
6 | CC(C)C[C@H](NC(=S)Nc1ccc(Br)cc1)C(=O)N[C@@H](Cc1ccc(OCc2ccccc2)cc1)C(=O)OC(C)(C)C (relative stereo) [Example 45, [S-(R*,R*)]-3-(4-Benzyloxy-phenyl)-2-{2-[3-(4-bromophenyl)-thioureido]-4-methyl-pentanoyl-amino}-propionic acid, tert-butyl ester] | 29 | 68
7 | CC(C)C[C@H](NC(=S)NC12CC3CC(CC(C3)C1)C2)C(=O)N[C@@H](Cc1ccc(OCc2ccccc2)cc1)C(=O)OC(C)(C)C (relative stereo) [Example 46, [S-(R*,R*)]-3-(4-Benzyloxy-phenyl)-2-{2-[3-(1-adamantyl)-thioureido]-4-methylpentanoylamino}-propionic acid, tert-butyl ester] | 29 | 49
8 | Cc1ccc(NC(=S)N[C@@H](CC(C)C)C(=O)N[C@@H](Cc2ccc(OCc3ccccc3)cc2)C(=O)OC(C)(C)C)cc1 (relative stereo) [Example 50, [S-(R*,R*)]-3-(4-Benzyloxy-phenyl)-2-[4-methyl-2-(3-p-tolyl-thioureido)-pentanoylamino]-propionic acid tert-butyl ester] | 53 | 85
9 | CNC(=S)N[C@@H](CC(C)C)C(=O)N[C@@H](Cc1ccc(OCc2ccccc2)cc1)C(=O)OC(C)(C)C (relative stereo) [Example 51, [S-(R*,R*)]-3-(4-Benzyloxy-phenyl)-2-[4-methyl-2-(3-methyl-thioureido)-pentanoylamino]-propionic acid tert-butyl ester] | 32 | 85
10 | CC(C)C[C@H](NC(=O)N1CCCCCC1)C(=O)N[C@@H](Cc1ccc(OCc2c(Cl)cccc2Cl)cc1)C(=O)NC(C)(C)C (relative stereo) [Example 52, [S-(R*,R*)]-Azepane-1-carboxylic acid (1-{1-tert-butylcarbamoyl-2-[4-(2,6-dichloro-benzyloxy)-phenyl]-ethylcarbamoyl}-3-methyl-butyl)-amide] | 56 | 76
11 | CC(C)C[C@H](NC(=O)Nc1ccccc1)C(=O)N[C@@H](Cc1ccc(OCc2ccccc2)cc1)C(=O)OC(C)(C)C (relative stereo) [Example 54, [S-(R*,R*)]-3-(4-Benzyloxy-phenyl)-2-[4-methyl-2-(3-phenyl-ureido)-pentanoylamino]propionic acid tert-butyl ester] | 44 | 63
12 | CC(C)C[C@H](NC(=O)Nc1ccc([N+](=O)[O-])cc1)C(=O)N[C@@H](Cc1ccc(OCc2ccccc2)cc1)C(=O)OC(C)(C)C (relative stereo) [Example 55, [S-(R*,R*)]-3-(4-Benzyloxy-phenyl)-2-{4-methyl-2-[3-(4-nitro-phenyl)-ureido]pentanoylamino}-propionic acid tert-butyl ester] | 14 | 46
13 | CC(C)C[C@H](NC(=O)NC1CCCCC1)C(=O)N[C@@H](Cc1ccc(OCc2ccccc2)cc1)C(=O)OC(C)(C)C (relative stereo) [Example 56, [S-(R*,R*)]-3-(4-Benzyloxy-phenyl)-2-[2-(3-cyclohexyl-ureido)-4-methyl-pentanoylamino]propionic acid tert-butyl ester] | 24 | 56
14 | COc1cccc(NC(=O)N[C@@H](CC(C)C)C(=O)N[C@@H](Cc2ccc(OCc3ccccc3)cc2)C(=O)OC(C)(C)C)c1 (relative stereo) [Example 57, [S-(R*,R*)]-3-(4-Benzyloxy-phenyl)-2-{2-[3-(3-methoxy-phenyl)-ureido]-4-methyl-pentanoylamino}-propionic acid tert-butyl ester] | 34 | 74
15 | Cc1ccc(NC(=O)N[C@@H](CC(C)C)C(=O)N[C@@H](Cc2ccc(OCc3ccccc3)cc2)C(=O)OC(C)(C)C)cc1 (relative stereo) [Example 58, [S-(R*,R*)]-3-(4-Benzyloxy-phenyl)-2-[4-methyl-2-(3-p-tolyl-ureido)-pentanoylamino]propionic acid tert-butyl ester] | 52 | 35
16 | CCCCNC(=O)N[C@@H](CC(C)C)C(=O)N[C@@H](Cc1ccc(OCc2ccccc2)cc1)C(=O)OC(C)(C)C (relative stereo) [Example 59, [S-(R*,R*)]-3-(4-Benzyloxy-phenyl)-2-[2-(3-butyl-ureido)-4-methyl-pentanoylamino]-propionic acid tert-butyl ester] | 41 | 61
17 | CC(C)C[C@H](NC(=O)NCc1ccccc1)C(=O)N[C@@H](Cc1ccc(OCc2ccccc2)cc1)C(=O)OC(C)(C)C (relative stereo) [Example 60, [S-(R*,R*)]-3-(4-Benzyloxy-phenyl)-2-[2-(3-benzyl-ureido)-4-methyl-pentanoylamino]-propionic acid tert-butyl ester] | 24 | 
18 | Cc1ccccc1NC(=O)N[C@@H](CC(C)C)C(=O)N[C@@H](Cc1ccc(OCc2ccccc2)cc1)C(=O)OC(C)(C)C (relative stereo) [Example 61, [S-(R*,R*)]-3-(4-Benzyloxy-phenyl)-2-[4-methyl-2-(3-o-tolyl-ureido)-pentanoylamino]-propionic acid tert-butyl ester] | 34 | 
